Results reported in US12077503B2, “Substituted cyclic amides and their use as herbicides” (FMC CORPORATION, priority 2015, dated 2024).

Tests used:
Assay type in all cases: in vivo
[1] = tested on: ragweed (common ragweed, Ambrosia elatior); assay: Test A preemergence; conditions: Preemergence
Summary of the method: (§1)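 Visual injury scores from 0, no effect, to 100, complete control, were assigned versus untreated controls roughly 10 d after treatment in the greenhouse. Test chemicals, formulated with surfactant in a non-phytotoxic solvent, were applied to planted seeds as a preemergence soil spray or postemergence to one- to two-leaf plants 2 to 10 cm tall, in loam–sand soil.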

Kochia (Kochia scoparia) [2] = assay: Test A preemergence
Summary of the method: as §1

[3] = tested on: giant foxtail (Setaria faberii); assay: Test A preemergence
Summary of the method: as §1

[4] = tested on: barnyardgrass (Echinochloa crus-galli); assay: Test A preemergence
Summary of the method: as §1

[5] = tested on: pigweed (Amaranthus retroflexus); assay: Test A preemergence; conditions: Preemergence
[6] = tested on: ryegrass, Italian (Italian ryegrass, Lolium multiflorum); assay: Test A preemergence; conditions: Preemergence
Summary of the method: as §1

[7] = tested on: sedge, umbrella (small-flower umbrella sedge, Cyperus difformis); assay: Test B flooded paddy test; conditions: Flood, 250 g ai/ha; 0 to 100 scale where 0 is no effect and 100 is complete control; 13 to 15 d
Summary of the method: (§2)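 Visual ratings (0 none to 100 complete control) are relative to untreated plants, taken 13–15 d after treatment in a greenhouse. Test material went straight into floodwater standing 3 cm above the soil, kept constant, on plants at the 2-leaf stage.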

[8] = tested on: ducksalad (Heteranthera limosa); assay: Test B flooded paddy test; conditions: Flood, 250 g ai/ha; 0 to 100 scale where 0 is no effect and 100 is complete control; 13 to 15 d
Summary of the method: as §2

[9] = tested on: barnyardgrass (Echinochloa crus-galli); assay: Test B flooded paddy test; conditions: Flood, 250 g ai/ha; 0 to 100 scale where 0 is no effect and 100 is complete control; 13 to 15 d
Summary of the method: as §2

rice (Oryra sativa) = assay: Test B flooded paddy test; conditions: Flood, 250 g ai/ha; 0 to 100 scale where 0 is no effect and 100 is complete control; 13 to 15 d
Summary of the method: as §2

[10] = tested on: blackgrass (Alopecurus myosuroides); assay: Test A postemergence; conditions: postemergence
Summary of the method: as §1

[11] = tested on: ragweed (common ragweed, Ambrosia elatior); assay: Test A postemergence
Summary of the method: as §1

Kochia (Kochia scoparia) [12] = assay: Test A postemergence
Summary of the method: as §1

[13] = tested on: giant foxtail (Setaria faberii); assay: Test A postemergence
Summary of the method: as §1

[14] = tested on: barnyardgrass (Echinochloa crus-galli); assay: Test A postemergence; conditions: postemergence
Summary of the method: as §1

[15] = tested on: Galium (catchweed bedstraw, Galium aparine); assay: Test A postemergence
Summary of the method: as §1

corn (Zea mays) = assay: Test A postemergence; conditions: postemergence
Summary of the method: as §1

[16] = tested on: wheat (Triticum aestivum); assay: Test A postemergence
Summary of the method: as §1

[17] = tested on: pigweed (Amaranthus retroflexus); assay: Test A postemergence
Summary of the method: as §1

[18] = tested on: ryegrass, Italian (Italian ryegrass, Lolium multiflorum); assay: Test A postemergence
Summary of the method: as §1

[19] = 125 g ai/ha, visual injury after approximately 10 d, 0 to 100 scale where 0 is no effect and 100 is complete control
[20] = 500 g ai/ha, visual injury approx. 10 d
[21] = 125 g ai/ha, preemergence, 0 to 100 scale (0 no effect, 100 complete control)
[22] = Preemergence, 500 g ai/ha, visual injury approx. 10 d
[23] = 125 g ai/ha, visual injury rating on 0 to 100 scale (0 no effect, 100 complete control), approx. 10 d
[24] = 500 g ai/ha, 0 to 100 scale, 0 no effect, 100 complete control
[25] = 125 g ai/ha, postemergence, visual injury rating on 0 to 100 scale (0 no effect, 100 complete control), approx. 10 d
[26] = Postemergence, 500 g ai/ha, 0 to 100 scale where 0 is no effect and 100 is complete control

For `CN1CC(c2ccccc2)C(C(=S)Nc2ccccc2F)C1=O` (stereo not drawn) [Compound 471], the “Plant response rating, Ragweed” value [1, 19] was 0, the “Ragweed plant response rating (0 to 100 scale, 0 is no effect, 100 is complete control)” value [1, 20] was 0 and the “Plant response rating, Kochia” value (Kochia (Kochia scoparia) [2]; [21]) was 0. The “Kochia plant response rating (0 to 100 scale, 0 is no effect, 100 is complete control)” value (Kochia (Kochia scoparia) [2]; [22]) was 0, the “Plant response rating, Foxtail, Giant” value [3, 21] was 90 and the “Foxtail, Giant plant response rating (0 to 100 scale, 0 is no effect, 100 is complete control)” value [3, 22] was 90. The “Plant response rating, Barnyardgrass” value [4, 21] was 70, the “Barnyardgrass plant response rating (0 to 100 scale, 0 is no effect, 100 is complete control)” value [4, 22] was 90 and the “Plant response rating, Pigweed” value [5, 19] was 0. The “Pigweed plant response rating (0 to 100 scale, 0 is no effect, 100 is complete control)” value [5, 20] was 0, the “Plant response rating, Ryegrass, Italian” value [6, 19] was 0 and the “Ryegrass, Italian plant response rating (0 to 100 scale, 0 is no effect, 100 is complete control)” value [6, 20] was 0. The “Plant response rating, Sedge, Umbrella” value [7] was 0, the “Plant response rating, Ducksalad” value [8] was 70 and the “Plant response rating, Barnyardgrass” value [9] was 0. For the same compound, the “Plant response rating, Rice” value (rice (Oryra sativa)) was 0, the “Blackgrass plant response rating” value [10, 23] was 0 and the “Plant response rating, Blackgrass” value [10, 24] was 0. The “Ragweed plant response rating” value [11, 25] was 0, the “Plant response rating, Ragweed” value [11, 26] was 0 and the “Kochia plant response rating” value (Kochia (Kochia scoparia) [12]; [25]) was 0. For the same compound, the “Plant response rating, Kochia” value (Kochia (Kochia scoparia) [12]; [26]) was 0, the “Foxtail, Giant plant response rating” value [13, 25] was 50 and the “Plant response rating, Foxtail, Giant” value [13, 26] was 70. The “Barnyardgrass plant response rating” value [14, 23] was 50, the “Plant response rating, Barnyardgrass” value [14, 24] was 70 and the “Galium plant response rating” value [15, 25] was 0. The “Plant response rating, Galium” value [15, 26] was 0, the “Corn plant response rating” value (corn (Zea mays); [23]) was 0 and the “Plant response rating, Corn” value (corn (Zea mays); [24]) was 0. The “Wheat plant response rating” value [16, 25] was 0, the “Plant response rating, Wheat” value [16, 26] was 0 and the “Pigweed plant response rating” value [17, 25] was 0. For the same compound, the “Plant response rating, Pigweed” value [17, 26] was 0, the “Ryegrass, Italian plant response rating” value [18, 25] was 0 and the “Plant response rating, Ryegrass, Italian” value [18, 26] was 0.
